Test results: patent US10172917B2, “Targeted oesophageal administration of ZN-α2-glycoproteins (ZAG), methods and formulations thereof” (ASTON UNIVERSITY, priority 2012, dated 2019)
Entries after “also recorded” stand apart in the source; their conditions may differ.

Columns and labels:
[1] = tested on: 3T3 L1 adipocytes; conditions: cited from earlier work
[2] = tested on: murine ZAG; assay: Western blotting of murine ZAG in serum and WAT of ob/ob mice; assay type: in vivo, mouse; conditions: ob/ob mice, oral ZAG + propanolol 40 mgkg^−1
Experimental: Tissues were thawed, washed in PBS and lysed in Phosphosafe™ Extraction reagent for 5 min at room temperature, followed by sonication at 4° C. Cytosolic protein (5-20 ug) formed by centrifugation at 18,000 g for 5 min at 4° C., was resolved on 12% SDS PAGE by electrophoresis at 180V for about 1 h. To determine ZAG in serum 30 μl samples containing 20 μg total protein were electrophoresed as above. Protein was transferred to 0.45 μm nitrocellulose membranes, which had been blocked with 5% (w/v) non-fat dried milk (Marvel) in Tris-buffered saline, pH 7.5, at 4° C. overnight. Membranes were washed for 15 min in 0.1% Tween 20 buffered saline prior to adding the primary antibodies. Both primary and secondary antibodies were used at a dilution of 1:1000. Incubation was for 1 h at room temperature, and development was by ECL. Blots were scanned by a densitometer to quantify differences.

[3] = tested on: ob/ob mice; assay: Serum metabolite and insulin levels in ob/ob mice after ZAG administration; assay type: in vivo, mouse; conditions: ob/ob mice, oral ZAG + propanolol
Text: FCS (foetal calf serum) was from Biosera (Sussex, UK), while DMEM (Dulbecco's modified Eagles Medium) was from PAA (Somerset, UK) and Freestyle medium was purchased from Invitrogen (Paisley, UK). Hybond A nitrocellulose membranes and peroxidise—conjugated rabbit anti-mouse antibody were from GE Healthcare (Bucks, UK), while enhanced chemiluminescene (ECL) development kits were purchased from Thermo Scientific (Northumberland, UK). Mouse monoclonal antibodies to full-length human and mouse ZAG were from Santa Cruz Biotechnology (Santa Cruz, Calif. A mouse insulin ELISA kit was purchased from DRG (Marburg, Germany) and glucose measurements in both urine and plasma were made using a Boots (Nottingham, UK) glucose kit. L-[U-^14C] tyrosine (sp.act 16.7 GBqmmol^−1) was purchased from Perkin Elmer Ltd, (Cambridge, UK), while 2-[1-^14C] deoxy-D-glucose (sp.act 1.85 GBqmmol^−1) was from American Radiolabeled Chemicals (Cardiff, UK).
(§1) Obese (ob/ob) mice (average weight 65 g) were bred in a colony, and were kept in an air conditioned room at 22+2° C. with ad libitum feeding of a rat and mouse breeding diet (Special Diet Services, Witham, UK) and tap water. […] Animals were grouped (n=5) to receive either ZAG/PBS (50 μg day^−1), or PBS in their drinking water, the experiment was repeated three times after a power analysis was performed. […] The ZAG was replaced every 48 h. One group of mice receiving ZAG were also administered propanolol (40 mgkg^−1, p.o.) daily. The dose of ZAG was chosen to be the same as that previously administered i.v. (1), so that a direct comparison could be made, between the two routes. Body weight, food and water intake, urinary glucose excretion, and body temperature, determined by the use of a rectal thermometer (RS Components, Northants, UK), were measured daily. A glucose tolerance test was performed on day 3. Animals were fasted for 12 h, followed by oral administration of glucose (1 gkg^−1 in a volume of 100 μl by gavage). Blood samples were removed from the tail vein at 15, 30, 60 and 120 min and used for the measurement of glucose. Urinary glucose was measured by collecting 0.5 ml urine and testing glucose concentration using a Boots glucose monitor. After 8 days of treatment the animals were terminated by cervical dislocation, tissues were removed and rapidly frozen in liquid nitrogen, and maintained at −80° C. Future work would be to repeat this work in diet-induced animals as alternative to a model with gene alteration, although previous studies have shown the ob/ob mouse to be a good indicator of potential human treatments. Animal studies were conducted under Home Office Licence according to the UKCCCR Guidelines for the care and use of laboratory animals.

[4] = tested on: gastrocnemius muscle; assay: Glucose uptake ex vivo into isolated muscle of treated ob/ob mice; assay type: in vivo, mouse; conditions: ob/ob mice treated 8 days; presence of insulin
[5] = tested on: ob/ob mice; assay: Oral ZAG in drinking water to ob/ob mice: body weight, rectal temperature, urinary glucose excretion; assay type: in vivo, mouse
Experimental: as §1, with “One group of mice receiving ZAG were also administered propanolol (40 mgkg^−1, p.o.) daily.” left out

[6] = tested on: ob/ob mice; assay: Oral glucose tolerance test in ob/ob mice after 3 days of oral ZAG; assay type: in vivo, mouse; conditions: oral ZAG + propanolol 40 mgkg^−1, day 3
Experimental: Animals were grouped (n=5) to receive either ZAG/PBS (50 μg day^−1), or PBS in their drinking water, the experiment was repeated three times after a power analysis was performed. […] The ZAG was replaced every 48 h. One group of mice receiving ZAG were also administered propanolol (40 mgkg^−1, p.o.) daily. The dose of ZAG was chosen to be the same as that previously administered i.v. (1), so that a direct comparison could be made, between the two routes. Body weight, food and water intake, urinary glucose excretion, and body temperature, determined by the use of a rectal thermometer (RS Components, Northants, UK), were measured daily. A glucose tolerance test was performed on day 3. Animals were fasted for 12 h, followed by oral administration of glucose (1 gkg^−1 in a volume of 100 μl by gavage). Blood samples were removed from the tail vein at 15, 30, 60 and 120 min and used for the measurement of glucose. Urinary glucose was measured by collecting 0.5 ml urine and testing glucose concentration using a Boots glucose monitor. After 8 days of treatment the animals were terminated by cervical dislocation, tissues were removed and rapidly frozen in liquid nitrogen, and maintained at −80° C. […] Animal studies were conducted under Home Office Licence according to the UKCCCR Guidelines for the care and use of laboratory animals.

[7] = tested on: white and brown adipocytes; assay: Glucose uptake ex vivo into white and brown adipocytes of treated ob/ob mice; assay type: in vivo, mouse; conditions: ob/ob mice treated 8 days; absence and presence of insulin (10 nM)
Experimental: Single cell suspensions of white and brown adipocytes were obtained by incubation of minced epididymal subcutaneous and visceral WAT and BAT for 2 and 2.5 h, respectively, with Krebs-Ringer bicarbonate (KRBB) containing 1.5 mgml^−1 collagenase and 4% BSA under 95% oxygen-5% CO2 at 37° C. Adipocytes were washed twice in 1 ml KRBB, pH7.2, and then incubated for 10 min at room temperature in 0.5 ml KRBB, containing 18.5 MBq 2-[1-^14C] deoxy-D-glucose (2-DG), together with non-radioactive 2-DG, to give a final concentration of 0.1 mM, in the absence or presence of insulin (10 nM). Uptake was terminated by addition of 1 ml ice-cold KRBB without glucose. Adipocytes were washed three times with 1 ml KRBB and lysed by the addition of 0.5 ml 1M NaOH. The uptake of 2-[1-^14C] DG was determined by liquid scintillation counting.

[8] = oral ZAG + propanolol 40 mgkg^−1

## C[C@H](Cc1ccc(OCC(=O)O)cc1)NC[C@H](O)c1cccc(Cl)c1 [BRL37344]
[1]
  levels of ZAG mRNA: increase

## CC(C)NC[C@H](O)COc1cccc2ccccc12 (racemic) [propanolol]
[2]
  murine ZAG in the serum of animals given ZAG and co-administered propanolol: no increase; also recorded: attenuated
[3]
  effect of propanolol on decrease in serum glucose after ZAG administration: completely attenuated
  effect of propanolol on decrease in serum insulin levels after ZAG administration: completely attenuated
[4]
  effect of propanolol on ZAG-induced glucose uptake ex vivo into gastrocnemius muscle: attenuated
[5]; PBS + propanolol
  effect of propanolol on weight gain of mice administered PBS: no effect
[5]; oral ZAG 50 μg daily + propanolol 40 mg/kg po daily
  effect of propanolol on ZAG-induced weight loss: blocked; also recorded: attenuated
[5]; oral ZAG + propanolol 20 mgkg^−1
  effect of propanolol on ZAG-induced weight loss: did not prevent the weight loss
[5]; [8]
  effect of propanolol on ZAG induced increase in rectal temperature: completely attenuated
  effect of propanolol on ZAG induced reduction in urinary excretion of glucose: completely attenuated
[6]
  effect of propanolol on ZAG-induced increase in insulin sensitivity: blocked; also recorded: attenuated
  effect of propanolol on ZAG-reduced peak blood glucose concentration / improvement in glucose disposal in glucose tolerance test: blocked; also recorded: attenuated
[7]
  effect of propanolol on ZAG-induced glucose uptake into BAT: attenuated
  effect of propanolol on ZAG-induced stimulation of glucose uptake ex vivo into epididymal, subcutaneous and visceral adipocytes: attenuated
